Counter-ions that a name gives are not always drawn. Like-named read-outs stand apart in the source and are kept apart here.
Legend:
[1] = system: influx of neutrophils to the lung in LPS-challenged rats; test: Rat LPS neutrophilia model; assay type: in vivo; settings: LPS aerosol, lavage 4 hours later, in at least one of the range of conditions tested, significance p<0.05
In short: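 Rats pretreated 15 min–24 h with compound or vehicle, given intratracheally (200 ul, isoflurane anaesthesia) as suspension in various vehicles, then exposed to LPS aerosol (100 ug/ml) 15 min. BAL 4 h later; Diffquick-stained differential counts give % inhibition of neutrophils versus no-compound controls at a set concentration and pretreatment time.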

Recombinant human p38α = molecular target: T1, Recombinant human p38α (Homo sapiens, UniProt Q16539); test: Fluorescence anisotropy kinase binding assay (standard or low volume); settings: for active in the assay (pIC50, p38α binding): 12 nM p38α, 5 nM fluorescent ligand; for IC50: bound, read-out: apparent pIC50 (converted)
T1 construct: GST; made in house
T1 sequence (Q16539 whole entry): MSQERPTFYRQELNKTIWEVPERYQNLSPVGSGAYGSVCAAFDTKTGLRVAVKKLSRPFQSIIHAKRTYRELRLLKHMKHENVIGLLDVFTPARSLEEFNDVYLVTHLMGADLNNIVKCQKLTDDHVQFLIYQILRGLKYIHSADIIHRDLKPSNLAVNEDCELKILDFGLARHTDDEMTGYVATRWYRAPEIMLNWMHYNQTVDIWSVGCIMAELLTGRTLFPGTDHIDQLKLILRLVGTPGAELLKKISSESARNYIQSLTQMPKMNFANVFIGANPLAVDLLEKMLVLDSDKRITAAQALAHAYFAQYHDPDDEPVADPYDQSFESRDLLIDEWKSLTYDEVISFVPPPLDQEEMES
In short: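 Activated GST-tagged recombinant human p38α (pre-activated with MBP-MKK6 DD) at 12 nM final with 5 nM rhodamine green-labelled pyridinylimidazole tracer in pH 7.5 HEPES/CHAPS/DTT/MgCl2 buffer. Test compound 0.28 nM–16.6 μM or 0.02 nM–25 μM final, 3% or 1.7% DMSO; 30–60 min at room temperature. Fluorescence anisotropy read (ex 485/em 535 nm) for Ki.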

[2] = system: IL-8 production by human neutrophils; test: TNF-stimulated IL-8 production from human neutrophils; assay type: cell-based; settings: Neutrophil, bound, not more than 50% inhibition at 100 nM, read-out: IC50
Experimental: TNF-Stimulated IL-8 Production from Human Neutrophils The effect of test compounds on TNF-stimulated IL8 production by human neutrophils is measured as follows. Neutrophils are prepared from blood obtained from consenting donors, using standard methods. Blood is collected in heparinized syringes and layered over histopaque (30 ml/20 ml). Following centrifugation, the red cell pellet is resuspended in PBS and purified over a dextran gradient. Red blood cells are lysed with water for 40 sec, remaining granulocytes collected by centrifugation and resuspended at 1.5×10̂6 cells/ml. Cells are added (0.5-1 ml) to 48 well plates already containing compound at 1000×final concentration in neat DMSO or 10% DMSO in RPMI1640 with 10% FBS. TNF (final concentration 100 ng/ml) is used as the stimulus. Cells incubated for approximately 20 hrs at 37° C., 5% CO2. Levels of IL-8 in the cell free supernatant are determined by sandwich ELISA, and inhibition relative to a control with DMPO but no compound is calculated.

TNFalpha = test: LPS-stimulated cytokine production in human whole blood; assay type: cell-based
Experimental: Assay: Test compound concentrations were prepared at 10× concentrations and LPS prepared at 1 ug/ml (final conc. of 50 ng/ml LPS) and added in 50 uL volumes to 1.5 mL eppendorf tubes. Heparinized human whole blood was obtained from healthy volunteers and was dispensed into eppendorf tubes or multiwell plates containing compounds and LPS in 0.2-0.4 mL volumes and the tubes incubated at 37 C. In some studies, compound was incubated with blood for up to 30 min prior to addition of LPS. Following a 4 hour incubation, the tubes or plates were centrifuged to remove cells and plasma was withdrawn and frozen at −80 C. Cytokine measurement: IL-1beta and/or TNFalpha were quantified using a standardized ELISA, or similar technology. Concentrations of IL-1beta or TNFalpha were determined from standard curves of the appropriate cytokine and IC50 values for test compound (concentration that inhibited 50% of LPS-stimulated cytokine production) were calculated by linear regression analysis.

[3] = LPS-stimulated TNF-alpha, bound, read-out: IC50

Compound	melting point	active in the assay (pIC50, p38α binding) (Recombinant human p38α)	IC50 [2]	IC50 (TNFalpha; [3])	further results
Cc1ccc(C(=O)Nc2ccc(C)c(-c3nc(NC4CC(C)(C)NC(C)(C)C4)nc4c3CNC(=O)N4c3c(F)cccc3F)c2)cc1F [23(e), N-(3-{8-(2,6-difluorophenyl)-7-oxo-2-[(2,2,6,6-tetramethyl-4-piperidinyl)amino]-5,6,7,8-tetrahydropyrimido[4,5-d]pyrimidin-4-yl}-4-methylphenyl)-3-fluoro-4-methylbenzamide]	220 °C (dec.)	active			inhibition of neutrophilia [1]: statistically nonsignificant inhibition of neutrophilia
Cc1ccc(C(=O)N(C)C)cc1-c1nc(N2CCN(C)CC2)nc2c1CNC(=O)N2c1c(F)cccc1F [149(c), 3-[8-(2,6-difluorophenyl)-2-(4-methyl-1-piperazinyl)-7-oxo-5,6,7,8-tetrahydropyrimido[4,5-d]pyrimidin-4-yl]-N,N,4-trimethylbenzamide]	159 to 162 °C	active	> 100 nM		
CCN(CC)C(=O)c1ccc(C)c(-c2nc(NCCN(C)C)nc3c2CNC(=O)N3c2c(F)cccc2F)c1 [156(c), 3-(8-(2,6-difluorophenyl)-2-{[2-(dimethylamino)ethyl]amino}-7-oxo-5,6,7,8-tetrahydropyrimido[4,5-d]pyrimidin-4-yl)-N,N-diethyl-4-methylbenzamide]	125 to 127 °C	active	> 100 nM		
Cc1ccc(C(=O)Nc2ccc(C)c(-c3nc(N(C)C)nc4c3CNC(=O)N4c3c(F)cccc3F)c2)cc1F [Example 28, N-{3-[8-(2,6-difluorophenyl)-2-(dimethylamino)-7-oxo-5,6,7,8-tetrahydropyrimido[4,5-d]pyrimidin-4-yl]-4-methylphenyl}-3-fluoro-4-methylbenzamide]	257.8 to 264.3 °C	active			inhibition of neutrophilia [1]: statistically nonsignificant inhibition of neutrophilia
Cc1ccc(C(=O)NC(C)C)cc1-c1nc(N2CCCCCC2)nc2c1CNC(=O)N2c1c(F)cccc1F [Example 66, 3-[8-(2,6-difluorophenyl)-2-(hexahydro-1H-azepin-1-yl)-7-oxo-5,6,7,8-tetrahydropyrimido[4,5-d]pyrimidin-4-yl]-4-methyl-N-(1-methylethyl)benzamide]				> 1000 nM	
Cc1ccc(C(=O)NC(C)C)cc1-c1nc(N2CCCC2)nc2c1CNC(=O)N2c1c(F)cccc1F [Example 67, 3-[8-(2,6-difluorophenyl)-7-oxo-2-(1-pyrrolidinyl)-5,6,7,8-tetrahydropyrimido[4,5-d]pyrimidin-4-yl]-4-methyl-N-(1-methylethyl)benzamide]				> 1000 nM	
Cc1ccc(C(=O)NC(C)C)cc1-c1nc(N2CCOCC2)nc2c1CNC(=O)N2c1c(F)cccc1F [Example 68, 3-[8-(2,6-difluorophenyl)-2-(4-morpholinyl)-7-oxo-5,6,7,8-tetrahydropyrimido[4,5-d]pyrimidin-4-yl]-4-methyl-N-(1-methylethyl)benzamide trifluoroacetate]				> 1000 nM	
Cc1ccc(C(=O)NC(C)C)cc1-c1nc(N2CCC(n3c(=O)[nH]c4cc(Cl)ccc43)CC2)nc2c1CNC(=O)N2c1c(F)cccc1F [Example 73, 3-[2-[4-(5-chloro-2-oxo-2,3-dihydro-1H-benzimidazol-1-yl)-1-piperidinyl]-8-(2,6-difluorophenyl)-7-oxo-5,6,7,8-tetrahydropyrimido[4,5-d]pyrimidin-4-yl]-4-methyl-N-(1-methylethyl)benzamide trifluoroacetate]				> 1000 nM	
Cc1c(F)cc(C(=O)NC(C)C)cc1-c1nc(NCCN(C)C)nc2c1CNC(=O)N2c1c(F)cccc1F [Example 111(c), 3-(8-(2,6-difluorophenyl)-2-{[2-(dimethylamino)ethyl]amino}-7-oxo-5,6,7,8-tetrahydropyrimido[4,5-d]pyrimidin-4-yl)-5-fluoro-4-methyl-N-(1-methylethyl)benzamide]					IC50 (TNFalpha; upper end printed as greater than 0.1 uM, read-out: IC50, range of data upon multiple runs): 40 to 100 nM
Cc1ccc(C(=O)NC[C@@H](C)O)cc1-c1nc(NCCN(C)C)nc2c1CNC(=O)N2c1c(F)cccc1F [Example 128, 3-(8-(2,6-difluorophenyl)-2-{[2-(dimethylamino)ethyl]amino}-7-oxo-5,6,7,8-tetrahydropyrimido[4,5-d]pyrimidin-4-yl)-N-[(2R)-2-hydroxypropyl]-4-methylbenzamide]				> 1000 nM	
Cc1ccc(C(=O)NC[C@H](C)O)cc1-c1nc(NCCN(C)C)nc2c1CNC(=O)N2c1c(F)cccc1F [Example 129, 3-(8-(2,6-difluorophenyl)-2-{[2-(dimethylamino)ethyl]amino}-7-oxo-5,6,7,8-tetrahydropyrimido[4,5-d]pyrimidin-4-yl)-N-[(2S)-2-hydroxypropyl]-4-methylbenzamide]				> 1000 nM	
CCc1ccc(C(=O)Nc2ccc(F)c(F)c2)cc1-c1nc(NCCN(C)C)nc2c1CNC(=O)N2c1c(F)cccc1F [Example 143, N-(3,4-difluorophenyl)-3-(8-(2,6-difluorophenyl)-2-{[2-(dimethylamino)-ethyl]amino}-7-oxo-5,6,7,8-tetrahydropyrimido[4,5-d]pyrimidin-4-yl)-4-ethylbenzamide trifluoroacetate]				> 1000 nM	
Cc1ccc(C(=O)N(C)C)cc1-c1nc(NCCN(C)C)nc2c1CNC(=O)N2c1c(F)cccc1F [Example 152]	138 to 142 °C		> 100 nM		
Cc1ccc(C(=O)N(C)C)cc1-c1nc(NCCNC(C)C)nc2c1CNC(=O)N2c1c(F)cccc1F [Example 153, 3-[8-(2,6-difluorophenyl)-2-({2-[(1-methylethyl)amino]ethyl}amino)-7-oxo-5,6,7,8-tetrahydropyrimido[4,5-d]pyrimidin-4-yl]-N,N,4-trimethylbenzamide]	130 to 133 °C		> 100 nM		IC50 (Recombinant human p38α): > 15800 nM
Cc1ccc(C(=O)N(C)C)cc1-c1nc(N(C)CCCN(C)C)nc2c1CNC(=O)N2c1c(F)cccc1F [Example 154, 3-{8-(2,6-difluorophenyl)-2-[[3-(dimethylamino)propyl](methyl)amino]-7-oxo-5,6,7,8-tetrahydropyrimido[4,5-d]pyrimidin-4-yl}-N,N,4-trimethylbenzamide]	114 to 118 °C	active	> 100 nM		
Cc1ccc(C(=O)N(C)C)cc1-c1nc(NC2CCN(C)CC2)nc2c1CNC(=O)N2c1c(F)cccc1F [Example 155, 3-{8-(2,6-difluorophenyl)-2-[(1-methyl-4-piperidinyl)amino]-7-oxo-5,6,7,8-tetrahydropyrimido[4,5-d]-pyrimidin-4-yl}N,N,4-trimethylbenzamide]	163 to 165 °C	active	> 100 nM		
CCN(CC)C(=O)c1ccc(C)c(-c2nc(NC3CCN(C)CC3)nc3c2CNC(=O)N3c2c(F)cccc2F)c1 [Example 159, 3-{8-(2,6-difluorophenyl)-2-[(1-methyl-4-piperidinyl)amino]-7-oxo-5,6,7,8-tetrahydropyrimido[4,5-dl-pyrimidin-4-yl}-N,N-diethyl-4-methylbenzamide]	165 to 169 °C		> 100 nM		
CCN(CC)C(=O)c1ccc(C)c(-c2nc(NCCNC(C)C)nc3c2CNC(=O)N3c2c(F)cccc2F)c1 [Example 160, 3-[8-(2,6-difluorophenyl)-2-({2-[(1-methylethyl)amino]ethyl}amino)-7-oxo-5,6,7,8-tetrahydropyrimido[4,5-d]pyrimidin-4-yl]-N,N-diethyl-4-methylbenzamide]	89 to 91 °C		> 100 nM		IC50 (Recombinant human p38α): > 15800 nM

From patent US20090239846A1, “Novel Compounds” (Glaxo Group Limited, priority 2005, published 2009)
